Test results from patent US7071293B1, “Alpha helical peptides with broad spectrum antimicrobial activity that are insensitive to salt” (priority 1999, dated 2006).
Where two headings read alike, the source gives them in different places. Ends that are not written are not given here.

Key:
B. cepacia ATCC 25416 = assay: Two stage radial diffusion assay (MIC); assay type: cell-based; set-up: unit not given here; details: underlay 0 mM NaCl
N. gonorrhoeae = assay: Two stage radial diffusion assay (MIC); assay type: cell-based; set-up: unit not given here; details: done only at 100 mM NaCl; for N. gonorrhoeae F 62 (serum-sensitive): strain F 62 (serum-sensitive); for N. gonorrhoeae FA 19 (serum-resistant): strain FA 19 (serum-resistant)
L. monocytogenes EGD = assay: Two stage radial diffusion assay (MIC); assay type: cell-based; set-up: unit not given here; details: underlay 0 mM NaCl
E. coli ML-35p = details: Table 15; for E. coli ML-35p MIC, 0 mM NaCl: underlay 0 mM NaCl; for E. coli ML-35p MIC, 175 mM NaCl: underlay 175 mM NaCl
P. aeruginosa MR 3007 = details: MR 3007
S. aureus 930918-3 = details: 930918-3
MRSA ATCC 33591 = details: ATCC 33591

Row | Substance | B. cepacia ATCC 25416 in underlays of low, normal and high salinity, 0 mM NaCl (B. cepacia ATCC 25416) | N. gonorrhoeae F 62 (serum-sensitive) (N. gonorrhoeae) | N. gonorrhoeae FA 19 (serum-resistant) (N. gonorrhoeae) | L. monocytogenes in underlays of low, normal and high salinity, 0 mM NaCl (L. monocytogenes EGD) | E. coli ML-35p MIC, 0 mM NaCl (E. coli ML-35p) | E. coli ML-35p MIC, 175 mM NaCl (E. coli ML-35p) | P. aeruginosa MR-3007 MIC, 0 mM NaCl (P. aeruginosa MR 3007) | P. aeruginosa MR-3007 MIC, 175 mM NaCl (P. aeruginosa MR 3007) | S. aureus 930918-3 MIC, 0 mM NaCl (S. aureus 930918-3) | S. aureus 930918-3 MIC, 175 mM NaCl (S. aureus 930918-3) | MRSA ATCC 33591 MIC, 0 mM NaCl (MRSA ATCC 33591) | MRSA ATCC 33591 MIC, 175 mM NaCl (MRSA ATCC 33591) | E. coli DH-5α MIC, 175 mM NaCl (E. coli DH-5α; DH-5α) | E. coli DH-5α MIC, 0 mM NaCl (E. coli DH-5α; underlay 0 mM NaCl) | P. aeruginosa PA-01 MIC, 0 mM NaCl (P. aeruginosa PA-01) | P. aeruginosa PA-01 MIC, 175 mM NaCl (P. aeruginosa PA-01) | E. coli DH-5α MIC, 0 mM NaCl (E. coli DH-5α; DH-5α)
1 | KNLRRIIRKIIHIIKKYGPTILRIIRIIG-NH2 [Peptide 28] | 17.0 | 0.1 | 0.1 | 0.4 | 0.16 ± 0.03 mg/L | 0.58 ± 0.12 mg/L | 0.34 ± 0.22 mg/L | 0.49 ± 0.06 mg/L | 0.55 ± 0.17 mg/L | 1.14 ± 0.23 mg/L | 0.32 ± 0.04 mg/L | 1.57 ± 0.30 mg/L | 0.40 ± 0.09 mg/L | 0.0042 mg/L | 0.53 ± 0.14 mg/L | 1.17 ± 0.23 mg/L | 
2 | LRRIIRKIIHIIKK-NH2 [Peptide 11] | >79.1 | 0.8 | 0.9 | 0.7 | 0.63 ± 0.05 mg/L | 49.2 ± 15.2 mg/L | 0.92 ± 0.06 mg/L | 20.1 ± 6.9 mg/L | 1.38 ± 0.21 mg/L | 16.4 ± 5.1 mg/L | 4.42 ± 1.73 mg/L | >79.1 mg/L | 5.92 ± 1.02 mg/L |  | 0.96 ± 0.05 mg/L | 6.51 ± 1.02 mg/L | 0.85 ± 0.04 mg/L
3 | GLRKRLRKFRNKIKEKLKKIGQKIQGLLPKLAPRTDY [Peptide 18] | >79.1 | 0.7 | 0.6 | 0.6 | 2.8 mg/L |  | 2.1 mg/L |  | 1.8 mg/L |  | 8.2 mg/L |  |  |  | 0.88 mg/L |  | 0.84 mg/L
4 | KRLRKFRNKIKEKLKKIG [Peptide 20] | >250 | >250 | >250 | 2.3 | 2.3 mg/L |  | 2.9 mg/L |  | 9.7 mg/L |  | 14.9 mg/L |  |  |  |  |  | 
5 | KIKEKLKKIGQKIQG [Peptide 25] | >250 | >79.1 | >250 | >250 | 1.6 mg/L |  | 8.7 mg/L |  | >250 mg/L |  | >250 mg/L |  |  |  |  |  | 
6 | GLRKRLRKFRNKIKEKLKKIG [Peptide 19] | >250 | 0.6 | >79.1 | 0.3 | 2.3 mg/L |  | 0.7 mg/L |  | 1.8 mg/L |  | 19.4 mg/L |  |  |  |  |  | 
7 | LRKFRNKIKEKLKKIGQKI [Peptide 22] | >250 | >79.1 | >250 | 5.9 | 0.1 mg/L |  | 0.7 mg/L |  | 6.0 mg/L |  | 4.5 mg/L |  |  |  |  |  | 
8 | KIKEKLKKIGQKIQGLL [Peptide 26] | >250 | >79.1 | >250 | 5.7 | 0.4 mg/L |  | 1.0 mg/L |  | >250 mg/L |  | >250 mg/L |  |  |  |  |  | 
9 | LRKFRNKIKEKLKKIGQKIQG [Peptide 23] | >250 | >79.1 | >250 | 5.5 | 0.2 mg/L |  | 1.5 mg/L |  | 16.3 mg/L |  | 10.3 mg/L |  |  |  |  |  | 
10 | KNLRRIIRKIIHIIKKYG [Peptide 8] | 20.2 | 0.5 | 0.2 | 2.1 | 0.45 ± 0.10 mg/L | 0.41 ± 0.06 mg/L | 0.67 ± 0.12 mg/L | 0.59 ± 0.05 mg/L | 0.84 ± 0.14 mg/L | 0.86 ± 0.06 mg/L | 0.77 ± 0.04 mg/L | 0.89 ± 0.05 mg/L | 0.35 ± 0.09 mg/L |  | 0.83 ± 0.05 mg/L | 0.82 ± 0.05 mg/L | 0.26 ± 0.05 mg/L
